The NIST ThermoML archive (doi:10.1016/j.jct.2014.07.018)
± gives the expanded uncertainty stated by the source.

Test: molar heat capacity at constant pressure
Settings: 101.33 kPa, Vacuum adiabatic calorimetry

CCCCn1cc[n+](C)c1.[I-] [1-butyl-3-methylimidazolium iodide]
molar heat capacity at constant pressure (4.858 K, Crystal): 0.768 ± 0.023 J/K/mol
molar heat capacity at constant pressure (5 K, Crystal): 0.845 ± 0.031 J/K/mol
molar heat capacity at constant pressure (5 K, Glass): 1.57 ± 0.04 J/K/mol
molar heat capacity at constant pressure (5.042 K, Glass): 1.601 ± 0.041 J/K/mol
molar heat capacity at constant pressure (5.112 K, Crystal): 0.909 ± 0.026 J/K/mol
molar heat capacity at constant pressure (5.32 K, Glass): 1.862 ± 0.046 J/K/mol
molar heat capacity at constant pressure (5.371 K, Crystal): 1.07 ± 0.029 J/K/mol
molar heat capacity at constant pressure (5.604 K, Glass): 2.149 ± 0.052 J/K/mol
molar heat capacity at constant pressure (5.638 K, Crystal): 1.249 ± 0.033 J/K/mol
molar heat capacity at constant pressure (5.895 K, Glass): 2.463 ± 0.059 J/K/mol
molar heat capacity at constant pressure (5.91 K, Crystal): 1.452 ± 0.037 J/K/mol
molar heat capacity at constant pressure (6.217 K, Crystal): 1.701 ± 0.042 J/K/mol
molar heat capacity at constant pressure (6.222 K, Glass): 2.842 ± 0.066 J/K/mol
molar heat capacity at constant pressure (6.56 K, Crystal): 2.006 ± 0.048 J/K/mol
molar heat capacity at constant pressure (6.586 K, Glass): 3.292 ± 0.076 J/K/mol
molar heat capacity at constant pressure (6.91 K, Crystal): 2.343 ± 0.055 J/K/mol
molar heat capacity at constant pressure (6.955 K, Glass): 3.776 ± 0.085 J/K/mol
molar heat capacity at constant pressure (7.265 K, Crystal): 2.714 ± 0.063 J/K/mol
molar heat capacity at constant pressure (7.328 K, Glass): 4.295 ± 0.096 J/K/mol
molar heat capacity at constant pressure (7.496 K, Glass): 4.532 ± 0.1 J/K/mol
molar heat capacity at constant pressure (7.625 K, Crystal): 3.114 ± 0.071 J/K/mol
molar heat capacity at constant pressure (7.705 K, Glass): 4.838 ± 0.11 J/K/mol
molar heat capacity at constant pressure (7.884 K, Glass): 5.11 ± 0.11 J/K/mol
molar heat capacity at constant pressure (7.99 K, Crystal): 3.553 ± 0.08 J/K/mol
molar heat capacity at constant pressure (8.267 K, Glass): 5.703 ± 0.12 J/K/mol
molar heat capacity at constant pressure (8.357 K, Crystal): 4.021 ± 0.09 J/K/mol
molar heat capacity at constant pressure (8.654 K, Glass): 6.323 ± 0.14 J/K/mol
molar heat capacity at constant pressure (8.728 K, Crystal): 4.513 ± 0.1 J/K/mol
molar heat capacity at constant pressure (9.042 K, Glass): 6.967 ± 0.15 J/K/mol
molar heat capacity at constant pressure (9.104 K, Crystal): 5.04 ± 0.11 J/K/mol
molar heat capacity at constant pressure (9.433 K, Glass): 7.63 ± 0.16 J/K/mol
molar heat capacity at constant pressure (9.483 K, Crystal): 5.597 ± 0.12 J/K/mol
molar heat capacity at constant pressure (9.825 K, Glass): 8.316 ± 0.18 J/K/mol
molar heat capacity at constant pressure (9.868 K, Crystal): 6.177 ± 0.13 J/K/mol
molar heat capacity at constant pressure (10 K, Crystal): 6.39 ± 0.1 J/K/mol
molar heat capacity at constant pressure (10 K, Glass): 8.62 ± 0.15 J/K/mol
molar heat capacity at constant pressure (10.33 K, Glass): 9.205 ± 0.11 J/K/mol
molar heat capacity at constant pressure (10.36 K, Crystal): 6.957 ± 0.089 J/K/mol
molar heat capacity at constant pressure (10.94 K, Glass): 10.33 ± 0.13 J/K/mol
molar heat capacity at constant pressure (10.95 K, Crystal): 7.92 ± 0.099 J/K/mol
molar heat capacity at constant pressure (11.56 K, Crystal): 8.937 ± 0.11 J/K/mol
molar heat capacity at constant pressure (11.56 K, Glass): 11.49 ± 0.14 J/K/mol
molar heat capacity at constant pressure (12.16 K, Crystal): 9.99 ± 0.12 J/K/mol
molar heat capacity at constant pressure (12.18 K, Glass): 12.66 ± 0.15 J/K/mol
molar heat capacity at constant pressure (12.77 K, Crystal): 11.08 ± 0.13 J/K/mol
molar heat capacity at constant pressure (12.8 K, Glass): 13.88 ± 0.16 J/K/mol
molar heat capacity at constant pressure (13.38 K, Crystal): 12.19 ± 0.14 J/K/mol
molar heat capacity at constant pressure (13.42 K, Glass): 15.11 ± 0.18 J/K/mol
molar heat capacity at constant pressure (14 K, Crystal): 13.34 ± 0.16 J/K/mol
molar heat capacity at constant pressure (14.05 K, Glass): 16.37 ± 0.19 J/K/mol
molar heat capacity at constant pressure (14.63 K, Crystal): 14.54 ± 0.17 J/K/mol
molar heat capacity at constant pressure (14.69 K, Glass): 17.68 ± 0.2 J/K/mol
molar heat capacity at constant pressure (15 K, Crystal): 15.25 ± 0.17 J/K/mol
molar heat capacity at constant pressure (15 K, Glass): 18.31 ± 0.2 J/K/mol
molar heat capacity at constant pressure (15.25 K, Crystal): 15.73 ± 0.18 J/K/mol
molar heat capacity at constant pressure (15.47 K, Glass): 19.26 ± 0.22 J/K/mol
molar heat capacity at constant pressure (15.99 K, Crystal): 17.18 ± 0.2 J/K/mol
molar heat capacity at constant pressure (16.42 K, Glass): 21.23 ± 0.24 J/K/mol
molar heat capacity at constant pressure (16.84 K, Crystal): 18.83 ± 0.21 J/K/mol
molar heat capacity at constant pressure (17.37 K, Glass): 23.19 ± 0.26 J/K/mol
molar heat capacity at constant pressure (17.7 K, Crystal): 20.48 ± 0.23 J/K/mol
molar heat capacity at constant pressure (18.32 K, Glass): 25.15 ± 0.28 J/K/mol
molar heat capacity at constant pressure (18.56 K, Crystal): 22.1 ± 0.25 J/K/mol
molar heat capacity at constant pressure (19.27 K, Glass): 27.09 ± 0.3 J/K/mol
molar heat capacity at constant pressure (19.42 K, Crystal): 23.73 ± 0.26 J/K/mol
molar heat capacity at constant pressure (20 K, Crystal): 24.83 ± 0.15 J/K/mol
molar heat capacity at constant pressure (20 K, Glass): 28.59 ± 0.17 J/K/mol
molar heat capacity at constant pressure (20.22 K, Glass): 29.03 ± 0.17 J/K/mol
molar heat capacity at constant pressure (20.29 K, Crystal): 25.36 ± 0.15 J/K/mol
molar heat capacity at constant pressure (21.48 K, Glass): 31.59 ± 0.18 J/K/mol
molar heat capacity at constant pressure (21.5 K, Crystal): 27.65 ± 0.16 J/K/mol
molar heat capacity at constant pressure (23.05 K, Glass): 34.73 ± 0.19 J/K/mol
molar heat capacity at constant pressure (23.06 K, Crystal): 30.6 ± 0.17 J/K/mol
molar heat capacity at constant pressure (24.62 K, Crystal): 33.53 ± 0.18 J/K/mol
molar heat capacity at constant pressure (24.63 K, Glass): 37.87 ± 0.2 J/K/mol
molar heat capacity at constant pressure (25 K, Crystal): 34.2 ± 0.19 J/K/mol
molar heat capacity at constant pressure (25 K, Glass): 38.6 ± 0.2 J/K/mol
molar heat capacity at constant pressure (26.19 K, Crystal): 36.35 ± 0.19 J/K/mol
molar heat capacity at constant pressure (26.21 K, Glass): 40.93 ± 0.21 J/K/mol
molar heat capacity at constant pressure (27.59 K, Crystal): 38.83 ± 0.2 J/K/mol
molar heat capacity at constant pressure (27.79 K, Glass): 43.88 ± 0.22 J/K/mol
molar heat capacity at constant pressure (29.09 K, Crystal): 41.41 ± 0.2 J/K/mol
molar heat capacity at constant pressure (29.96 K, Glass): 47.88 ± 0.23 J/K/mol
molar heat capacity at constant pressure (30 K, Crystal): 42.93 ± 0.19 J/K/mol
molar heat capacity at constant pressure (30 K, Glass): 47.93 ± 0.22 J/K/mol
molar heat capacity at constant pressure (30.68 K, Crystal): 44.04 ± 0.2 J/K/mol
molar heat capacity at constant pressure (32.35 K, Glass): 52.05 ± 0.23 J/K/mol
molar heat capacity at constant pressure (32.43 K, Crystal): 46.84 ± 0.21 J/K/mol
molar heat capacity at constant pressure (34.29 K, Glass): 55.25 ± 0.25 J/K/mol
molar heat capacity at constant pressure (34.33 K, Crystal): 49.79 ± 0.22 J/K/mol
molar heat capacity at constant pressure (35 K, Crystal): 50.8 ± 0.23 J/K/mol
molar heat capacity at constant pressure (35 K, Glass): 56.37 ± 0.26 J/K/mol
molar heat capacity at constant pressure (36.21 K, Glass): 58.25 ± 0.26 J/K/mol
molar heat capacity at constant pressure (36.25 K, Crystal): 52.67 ± 0.24 J/K/mol
molar heat capacity at constant pressure (38.13 K, Glass): 61.21 ± 0.27 J/K/mol
molar heat capacity at constant pressure (38.16 K, Crystal): 55.41 ± 0.25 J/K/mol
molar heat capacity at constant pressure (40 K, Crystal): 58.01 ± 0.26 J/K/mol
molar heat capacity at constant pressure (40 K, Glass): 64 ± 0.29 J/K/mol
molar heat capacity at constant pressure (40.04 K, Glass): 64.03 ± 0.28 J/K/mol
molar heat capacity at constant pressure (40.07 K, Crystal): 58.07 ± 0.26 J/K/mol
molar heat capacity at constant pressure (42.06 K, Glass): 66.96 ± 0.3 J/K/mol
molar heat capacity at constant pressure (42.08 K, Crystal): 60.84 ± 0.27 J/K/mol
molar heat capacity at constant pressure (44.18 K, Glass): 69.94 ± 0.31 J/K/mol
molar heat capacity at constant pressure (44.19 K, Crystal): 63.71 ± 0.28 J/K/mol
molar heat capacity at constant pressure (45 K, Crystal): 64.77 ± 0.29 J/K/mol
molar heat capacity at constant pressure (45 K, Glass): 71.05 ± 0.31 J/K/mol
molar heat capacity at constant pressure (46.3 K, Crystal): 66.48 ± 0.29 J/K/mol
molar heat capacity at constant pressure (46.3 K, Glass): 72.87 ± 0.32 J/K/mol
molar heat capacity at constant pressure (48.41 K, Crystal): 69.11 ± 0.3 J/K/mol
molar heat capacity at constant pressure (48.42 K, Glass): 75.66 ± 0.33 J/K/mol
molar heat capacity at constant pressure (50 K, Crystal): 71.06 ± 0.31 J/K/mol
molar heat capacity at constant pressure (50 K, Glass): 77.66 ± 0.34 J/K/mol
molar heat capacity at constant pressure (50.52 K, Crystal): 71.72 ± 0.32 J/K/mol
molar heat capacity at constant pressure (50.54 K, Glass): 78.37 ± 0.34 J/K/mol
molar heat capacity at constant pressure (52.64 K, Crystal): 74.22 ± 0.33 J/K/mol
molar heat capacity at constant pressure (52.66 K, Glass): 80.96 ± 0.35 J/K/mol
molar heat capacity at constant pressure (54.76 K, Crystal): 76.59 ± 0.34 J/K/mol
molar heat capacity at constant pressure (54.78 K, Glass): 83.48 ± 0.37 J/K/mol
molar heat capacity at constant pressure (56.88 K, Crystal): 78.93 ± 0.35 J/K/mol
molar heat capacity at constant pressure (56.91 K, Glass): 85.88 ± 0.38 J/K/mol
molar heat capacity at constant pressure (59.01 K, Crystal): 81.2 ± 0.36 J/K/mol
molar heat capacity at constant pressure (59.04 K, Glass): 88.27 ± 0.39 J/K/mol
molar heat capacity at constant pressure (60 K, Crystal): 82.26 ± 0.36 J/K/mol
molar heat capacity at constant pressure (60 K, Glass): 89.36 ± 0.39 J/K/mol
molar heat capacity at constant pressure (61.14 K, Crystal): 83.4 ± 0.36 J/K/mol
molar heat capacity at constant pressure (61.17 K, Glass): 90.59 ± 0.4 J/K/mol
molar heat capacity at constant pressure (63.27 K, Crystal): 85.56 ± 0.37 J/K/mol
molar heat capacity at constant pressure (63.31 K, Glass): 92.93 ± 0.41 J/K/mol
molar heat capacity at constant pressure (65.4 K, Crystal): 87.69 ± 0.38 J/K/mol
molar heat capacity at constant pressure (65.45 K, Glass): 95.14 ± 0.41 J/K/mol
molar heat capacity at constant pressure (67.54 K, Crystal): 89.76 ± 0.39 J/K/mol
molar heat capacity at constant pressure (67.59 K, Glass): 97.4 ± 0.42 J/K/mol
molar heat capacity at constant pressure (69.67 K, Crystal): 91.79 ± 0.4 J/K/mol
molar heat capacity at constant pressure (69.73 K, Glass): 99.56 ± 0.43 J/K/mol
molar heat capacity at constant pressure (70 K, Crystal): 92.11 ± 0.4 J/K/mol
molar heat capacity at constant pressure (70 K, Glass): 99.8 ± 0.43 J/K/mol
molar heat capacity at constant pressure (71.91 K, Crystal): 93.89 ± 0.41 J/K/mol
molar heat capacity at constant pressure (71.97 K, Glass): 101.8 ± 0.4 J/K/mol
molar heat capacity at constant pressure (74.26 K, Crystal): 96.02 ± 0.42 J/K/mol
molar heat capacity at constant pressure (74.32 K, Glass): 104.1 ± 0.5 J/K/mol
molar heat capacity at constant pressure (76.61 K, Crystal): 98.12 ± 0.43 J/K/mol
molar heat capacity at constant pressure (76.67 K, Glass): 106.3 ± 0.5 J/K/mol
molar heat capacity at constant pressure (78.96 K, Crystal): 100.2 ± 0.4 J/K/mol
